Experiments:
[1] = system: 4EBP1 (Thr37/46) phosphorylation (mTORC1) in MDA-MB-468 cells; test: Cell based AlphaLISA assay, mTOR kinase cellular assay: inhibition of p-4E-BP1 (T37/46) in MDA-MB-468 cells; details: Homo sapiens, read-out: pIC50 for Inhibition of mTORC1 and mTORC2 Substarte Phosphorylation p-4E-BP1-(T37/46) (converted)
Summary of the method: (§1)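 MDA-MB-468 cells treated with compound at 0.017-1,000 nM for two to four hours at 37° C, then lysed. Phospho-AKT1/2/3 S473, 4EBP1 T37/46 and P70S6K T389 quantified by AlphaLISA SureFire Ultra in duplicate; IC50 from normalized regression with control-based normalization.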

[2] = system: AKT1/2/3 (Ser473) phosphorylation (mTORC2) in MDA-MB-468 cells; test: Cell based AlphaLISA assay, mTOR kinase cellular assay: inhibition of p-Akt (S473) in MDA-MB-468 cells; details: Homo sapiens, read-out: pIC50 for Inhibition of mTORC1 and mTORC2 Substarte Phosphorylation p-AKT1/2/3-(S473) (converted)
Summary of the method: as §1

[3] = system: P70S6K (Thr389) phosphorylation (mTORC1) in MDA-MB-468 cells; test: Cell based AlphaLISA assay, mTOR kinase cellular assay: inhibition of p-P70S6K (T389) in MDA-MB-468 cells; details: Homo sapiens, read-out: pIC50 for Inhibition of mTORC1 and mTORC2 Substarte Phosphorylation p-P70S6K-(T389) (converted)
Description: Cell Based AlphaLISA Assays for Determining IC50 For Inhibition of P-Akt (S473), P-4E-BP1 (T37/46), and P-P70S6K (T389) in MDA-MB-468 Cells
mTOR Kinase Cellular Assay
To measure functional activity of mTORC1 and mTORC2 in cells the phosphorylation of 4EBP1 (Thr37/46) and P70S6K (Thr389), and AKT1/2/3 (Ser473) was monitored using AlphaLisa SureFire Ultra Kits (Perkin Elmer). MDA-MB-468 cells (ATCC® HTB-132) were cultured in 96-well tissue culture plates and treated with compounds in the disclosure at concentrations varying from 0.017-1,000 nM for two to four hours at 37° C. Incubations were terminated by removal of the assay buffer and addition of lysis buffer provided with the assay kit. Samples were processed according to the manufacturer's instructions. The Alpha signal from the respective phosphoproteins was measured in duplicate using a microplate reader (Envision, Perkin-Elmer or Spectramax M5, Molecular Devices). Inhibitor concentration response curves were analyzed using normalized IC50 regression curve fitting with control based normalization.

Compound	IC50 [1] [nM]	IC50 [2] [nM]	IC50 [3] [nM]
CO[C@H]1C[C@@H]2CC[C@@H](C)[C@@](O)(O2)C(=O)C(=O)N2CCCC[C@H]2C(=O)O[C@H]([C@H](C)C[C@@H]2CC[C@@H](OC(=O)NCc3cnc(N4CCN(c5ncc(C(=O)NCCOCCOCCOCCOCCC(=O)NCCCCn6nc(-c7cnc8[nH]ccc8c7)c7c(N)ncnc76)cn5)CC4)nc3)[C@H](OC)C2)CC(=O)[C@H](C)/C=C(\C)[C@@H](O)[C@@H](OC)C(=O)[C@H](C)C[C@H](C)/C=C/C=C/C=C/1C [Example 32]	≤ 3.16	3.16 to 31.6	≤ 1
CO[C@H]1C[C@@H]2CC[C@@H](C)[C@@](O)(O2)C(=O)C(=O)N2CCCC[C@H]2C(=O)O[C@H]([C@H](C)C[C@@H]2CC[C@@H](OC(=O)NCCOCCOCCOCCOCCOCCOCCC(=O)N3CCC(N4CCC(C(=O)N5CCc6cc(Cn7nc(-c8ccc9oc(N)nc9c8)c8c(N)ncnc87)ccc6C5)CC4)CC3)[C@H](OC)C2)CC(=O)[C@H](C)/C=C(\C)[C@@H](O)[C@@H](OC)C(=O)[C@H](C)C[C@H](C)/C=C/C=C/C=C/1C [Example 48]	≤ 3.16	3.16 to 31.6	≤ 1
CO[C@H]1C[C@@H]2CC[C@@H](C)[C@@](O)(O2)C(=O)C(=O)N2CCCC[C@H]2C(=O)O[C@H]([C@H](C)C[C@@H]2CC[C@@H](OC(=O)NCCOCCOCCOCCOCCC(=O)NCCOCCOCCOCCOCCC(=O)NCCCCn3nc(-c4cnc5[nH]ccc5c4)c4c(N)ncnc43)[C@H](OC)C2)CC(=O)[C@H](C)/C=C(\C)[C@@H](O)[C@@H](OC)C(=O)[C@H](C)C[C@H](C)/C=C/C=C/C=C/1C [Example 18]	3.16 to 31.6	31.6 to 1000	≤ 1
CO[C@H]1C[C@@H]2CC[C@@H](C)[C@@](O)(O2)C(=O)C(=O)N2CCCC[C@H]2C(=O)O[C@H]([C@H](C)C[C@@H]2CC[C@@H](OC(=O)N3CCN(c4ncc(C(=O)NCCOCCOCCOCCOCCOCCC(=O)N5CCc6cc(Cn7nc(-c8cnc9[nH]ccc9c8)c8c(N)ncnc87)ccc6C5)cn4)CC3)[C@H](OC)C2)CC(=O)[C@H](C)/C=C(\C)[C@@H](O)[C@@H](OC)C(=O)[C@H](C)C[C@H](C)/C=C/C=C/C=C/1C [Example 37]	≤ 3.16	> 1000	≤ 1
CO[C@H]1C[C@@H]2CC[C@@H](C)[C@@](O)(O2)C(=O)C(=O)N2CCCC[C@H]2C(=O)O[C@H]([C@H](C)C[C@@H]2CC[C@@H](OC(=O)NCc3cnc(N4CCN(C(=O)CCOCCN5CCN(c6ncc(C(=O)N7CCc8cc(Cn9nc(-c%10ccc%11oc(N)nc%11c%10)c%10c(N)ncnc%109)ccc8C7)cn6)CC5)CC4)nc3)[C@H](OC)C2)CC(=O)[C@H](C)/C=C(\C)[C@@H](O)[C@@H](OC)C(=O)[C@H](C)C[C@H](C)/C=C/C=C/C=C/1C [Example 51]	≤ 3.16	≤ 3.16	≤ 1
CO[C@H]1C[C@@H]2CC[C@@H](C)[C@@](O)(O2)C(=O)C(=O)N2CCCC[C@H]2C(=O)O[C@H]([C@H](C)C[C@@H]2CC[C@@H](OC(=O)NCCOCCC(=O)NCc3cnc(N4CCN(C(=O)CCOCCN5CCN(c6ncc(C(=O)N7CCc8cc(Cn9nc(-c%10ccc%11oc(N)nc%11c%10)c%10c(N)ncnc%109)ccc8C7)cn6)CC5)CC4)nc3)[C@H](OC)C2)CC(=O)[C@H](C)/C=C(\C)[C@@H](O)[C@@H](OC)C(=O)[C@H](C)C[C@H](C)/C=C/C=C/C=C/1C [Example 67]	31.6 to 1000	31.6 to 1000	10 to 1000
CO[C@H]1C[C@@H]2CC[C@@H](C)[C@@](O)(O2)C(=O)C(=O)N2CCCC[C@H]2C(=O)O[C@H]([C@H](C)C[C@@H]2CC[C@@H](OC(=O)N3CCc4nc(N5CCN(CCOCCN6CCN(c7ncc(C(=O)N8CCc9cc(Cn%10nc(-c%11cnc%12[nH]ccc%12c%11)c%11c(N)ncnc%11%10)ccc9C8)cn7)CC6)CC5)ncc4C3)[C@H](OC)C2)CC(=O)[C@H](C)/C=C(\C)[C@@H](O)[C@@H](OC)C(=O)[C@H](C)C[C@H](C)/C=C/C=C/C=C/1C [Example 128]	3.16 to 31.6	31.6 to 1000	≤ 1
CO[C@H]1C[C@@H]2CC[C@@H](C)[C@@](O)(O2)C(=O)C(=O)N2CCCC[C@H]2C(=O)O[C@H]([C@H](C)C[C@@H]2CC[C@@H](OC(=O)NCc3cnc(N4CCN(c5ncc(C(=O)NCCOCCOCCOCCOCCC(=O)N6CCc7cc(Cn8nc(-c9cnc%10[nH]ccc%10c9)c9c(N)ncnc98)ccc7C6)cn5)CC4)nc3)[C@H](OC)C2)CC(=O)[C@H](C)/C=C(\C)[C@@H](O)[C@@H](OC)C(=O)[C@H](C)C[C@H](C)/C=C/C=C/C=C/1C [Example 33]	≤ 3.16	> 1000	≤ 1
CO[C@H]1C[C@@H]2CC[C@@H](C)[C@@](O)(O2)C(=O)C(=O)N2CCCC[C@H]2C(=O)O[C@H]([C@H](C)C[C@@H]2CC[C@@H](OC(=O)NCc3cnc(N4CCN(C(=O)CCOCCN5CCN(c6ncc(C(=O)NCCOCCC(=O)NCCCCn7nc(-c8ccc9oc(N)nc9c8)c8c(N)ncnc87)cn6)CC5)CC4)nc3)[C@H](OC)C2)CC(=O)[C@H](C)/C=C(\C)[C@@H](O)[C@@H](OC)C(=O)[C@H](C)C[C@H](C)/C=C/C=C/C=C/1C [Example 63]	≤ 3.16	≤ 3.16	≤ 1
CO[C@H]1C[C@@H]2CC[C@@H](C)[C@@](O)(O2)C(=O)C(=O)N2CCCC[C@H]2C(=O)O[C@H]([C@H](C)C[C@@H]2CC[C@@H](OC(=O)NCCOCCC(=O)NCc3cnc(N4CCN(C(=O)CCOCCN5CCN(c6ncc(C(=O)N7CCc8cc(Cn9nc(-c%10ccc%11oc(N)nc%11c%10)c%10c(N)ncnc%109)ccc8C7)cn6)CC5)CC4)nc3)[C@H](OC)C2)C[C@@H](OC)[C@H](C)/C=C(\C)[C@@H](O)[C@@H](OC)C(=O)[C@H](C)C[C@H](C)/C=C/C=C/C=C/1C [Example 70]	≤ 3.16	31.6 to 1000	≤ 1
CO[C@H]1C[C@@H]2CC[C@@H](C)[C@@](O)(O2)C(=O)C(=O)N2CCCC[C@H]2C(=O)O[C@H]([C@H](C)C[C@@H]2CC[C@@H](OC(=O)NCc3cnc(N4CCN(C(=O)CCOCCN5CCN(c6ncc(C(=O)NCCOCCC(=O)N7CCc8cc(Cn9nc(-c%10ccc%11oc(N)nc%11c%10)c%10c(N)ncnc%109)ccc8C7)cn6)CC5)CC4)nc3)[C@H](OC)C2)C[C@@H](OC)[C@H](C)/C=C(\C)[C@@H](O)[C@@H](OC)C(=O)[C@H](C)C[C@H](C)/C=C/C=C/C=C/1C [Example 65]	≤ 3.16	31.6 to 1000	≤ 1
CO[C@H]1C[C@@H]2CC[C@@H](C)[C@@](O)(O2)C(=O)C(=O)N2CCCC[C@H]2C(=O)O[C@H]([C@H](C)C[C@@H]2CC[C@@H](OC(=O)N3CCc4nc(N5CCN(c6ncc(C(=O)NCCOCCOCCOCCOCCC(=O)N7CCc8cc(Cn9nc(-c%10cnc%11[nH]ccc%11c%10)c%10c(N)ncnc%109)ccc8C7)c(N)n6)CC5)ncc4C3)[C@H](OC)C2)CC(=O)[C@H](C)/C=C(\C)[C@@H](O)[C@@H](OC)C(=O)[C@H](C)C[C@H](C)/C=C/C=C/C=C/1C [Example 109]	> 1000	> 1000	10 to 1000
CO[C@H]1C[C@@H]2CC[C@@H](C)[C@@](O)(O2)C(=O)C(=O)N2CCCC[C@H]2C(=O)O[C@H]([C@H](C)C[C@@H]2CC[C@@H](OC(=O)NCCOCCOCCOCCOCCC(=O)NCc3cnc(N4CCN(c5ncc(C(=O)NCCCCn6nc(-c7cnc8[nH]ccc8c7)c7c(N)ncnc76)cn5)CC4)nc3)[C@H](OC)C2)CC(=O)[C@H](C)/C=C(\C)[C@@H](O)[C@@H](OC)C(=O)[C@H](C)C[C@H](C)/C=C/C=C/C=C/1C [Example 47]	≤ 3.16	3.16 to 31.6	≤ 1
CO[C@H]1C[C@@H]2CC[C@@H](C)[C@@](O)(O2)C(=O)C(=O)N2CCCC[C@H]2C(=O)O[C@H]([C@H](C)C[C@@H]2CC[C@@H](OC(=O)NCCOCCOCCOCCOCCOCCOCCC(=O)NC3CCN(CC(=O)N4CCc5cc(Cn6nc(-c7ccc8oc(N)nc8c7)c7c(N)ncnc76)ccc5C4)CC3)[C@H](OC)C2)C[C@@H](O)[C@H](C)/C=C(\C)[C@@H](O)[C@@H](OC)C(=O)[C@H](C)C[C@H](C)/C=C/C=C/C=C/1C [Example 112]	> 1000	> 1000	≤ 1
CO[C@H]1C[C@@H]2CC[C@@H](C)[C@@](O)(O2)C(=O)C(=O)N2CCCC[C@H]2C(=O)O[C@H]([C@H](C)C[C@@H]2CC[C@@H](OC(=O)NCCOCCOCCOCCOCCC(=O)NCCOCCOCCOCCOCCC(=O)N3CCc4cc(Cn5nc(-c6ccc7oc(N)nc7c6)c6c(N)ncnc65)ccc4C3)[C@H](OC)C2)C[C@@H](OC)[C@H](C)/C=C(\C)[C@@H](O)[C@@H](OC)C(=O)[C@H](C)C[C@H](C)/C=C/C=C/C=C/1C [Example 17]	≤ 3.16	3.16 to 31.6	≤ 1
